Reference: patent US10208046B2, “Nitrogen-containing heterocyclic compound” (Takeda Pharmaceutical Company Limited, priority 2014, dated 2019)

What was measured:
[1] = system: IP1 production in hippocampi; test: Measurement of myo-inositol 1 phosphate (IP1) in rat hippocampi after oral administration; assay type: in vivo, male Long-Evans rats; details: rat hippocampus IP1/protein ratio, Vehicle group as 100%
Protocol: Measurement of Myo-Inositol 1 Phosphate (IP1)
Animals used were male Long-Evans rats. They were used after acclimation for at least 1 week. Test compounds were suspended in 0.5% (w/v) aqueous methylcellulose solution, and the suspension was orally administered to the rats. After a given time, lithium chloride was dissolved in saline and subcutaneously administered into the rats. After a given time, their bilateral hippocampi were isolated from the rats, and the wet weight thereof was measured. The isolated hippocampi were homogenized with HEPES buffer, followed by centrifugation. The IP1 and protein concentrations in the supernatant were measured by IP-One HTRF(R) assay kit (Cisbio Bioassays) and BCA protein assay kit (Thermo Scientific), respectively. The level of the IP1 production was expressed as the ratio of the concentration of IP1 to that of protein. The increase rate of the IP1 production was shown as a relative value when Vehicle administration group as 100%.

[2] = system: Scopolamine-induced memory deficits models; test: Novel object recognition test; assay type: in vivo, male Long-Evans rats; details: scopolamine 0.1 mg/kg s.c., retention trial 4 hr later, mean±standard error
Protocol: Novel Object Recognition Test Novel object recognition test is comprised of two trials called the acquisition and the retention trials. Scopolamine-induced memory deficits models were used for the test, and animals used were male Long-Evans rats (7-week-old). On the day before the test, for acclimation, the rats were allowed to freely move about the test box (40×40×50 cm) for 10 minutes. On the test day, the rats were acclimated to the test room for about 1 hr prior to the test. The test compounds were orally administered to the rats in a single dose 2 hours before the acquisition trial. For induction of learning and memory deficits, scopolamine (0.1 mg/kg) was subcutaneously administered into the rats 30 min before the acquisition trial. For the acquisition trial, two identical objects (A1, A2) were placed in the test box. The rats were put in the test box for 3 min, and the duration exploring each object was measured. The retention trial was performed 4 hr after the acquisition trial. […] The duration for exploring each object in the acquisition trial and the retention trial was measured, and the exploration rate of novel object was calculated. The exploration rate of novel object was expressed as (the duration exploring the novel object)/[(the duration exploring the novel object)+(the duration exploring the familiar object)]×100(%) at mean±standard error.

[3] = target: T1, human M1 receptor (hCHRM1) (Homo sapiens, UniProt P11229); test: Measurement of M1 receptor positive allosteric modulator (M1PAM) activity, calcium fluorescence in CHO-K1 cells; assay type: cell-based; details: for activity (%) at 10 μM: 10 μM test compound with acetylcholine at EC20, 100% = acetylcholine 1 μM, 0% = DMSO; for EC50: inflection point in the concentration-dependent curve, acetylcholine at EC20 (final 0.6-0.8 nM), CHO-K1 cells expressing human M1, Fluo-4, FLIPRtetra, read-out: IP value;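 as to EC50: potency reported as IP value in nM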
T1 construct: expressed in transfected cells
T1 sequence (P11229 1-460): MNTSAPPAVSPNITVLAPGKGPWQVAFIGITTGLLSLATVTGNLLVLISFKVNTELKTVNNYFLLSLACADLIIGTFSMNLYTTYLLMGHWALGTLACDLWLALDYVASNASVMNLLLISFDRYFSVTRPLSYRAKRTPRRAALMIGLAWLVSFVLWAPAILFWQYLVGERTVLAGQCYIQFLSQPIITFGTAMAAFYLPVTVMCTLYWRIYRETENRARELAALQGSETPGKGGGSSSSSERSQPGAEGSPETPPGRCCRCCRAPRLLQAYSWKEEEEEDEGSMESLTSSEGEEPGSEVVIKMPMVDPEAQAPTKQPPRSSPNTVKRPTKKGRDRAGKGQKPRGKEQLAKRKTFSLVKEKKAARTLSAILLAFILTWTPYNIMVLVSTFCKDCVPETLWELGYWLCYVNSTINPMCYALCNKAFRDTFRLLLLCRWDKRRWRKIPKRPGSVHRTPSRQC
How it was run: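 CHO-K1 cells stably expressing human M1, Fluo-4 loaded, treated with compound plus acetylcholine at EC20 (final 0.6-0.8 nM); calcium fluorescence read by FLIPR over 1 min. Activity scaled to 1 μM acetylcholine (100%) and DMSO (0%); IP = inflection point of concentration-response curve.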

| SMILES | increase rate (% of Vehicle) ([1]; 30 mg/kg oral) | exploration rate of novel object (%) ([2]; 3 mg/kg oral single dose 2 hours before acquisition trial) | exploration rate of novel object (%) ([2]; 10 mg/kg oral single dose 2 hours before acquisition trial) | activity (%) at 10 μM [3] [%] | EC50 [3] [nM] | increase rate (% of Vehicle) ([1]; 10 mg/kg oral) | increase rate (% of Vehicle) ([1]; 3 mg/kg oral) |
| --- | --- | --- | --- | --- | --- | --- | --- |
| Cc1nn(C)cc1-c1ccc(CN2Cc3ccnc(OCC(F)F)c3C2=O)cc1 [Example 6, 4-(2,2-difluoroethoxy)-2-(4-(1,3-dimethyl-1H-pyrazol-4-yl)benzyl)-1,2-dihydro-3H-pyrrolo[3,4-c]pyridin-3-one] | 38 % of Vehicle | 58.75±2.01 | 52.48±2.28 | 109 | 70 |  |  |
| Cc1nn(C)cc1-c1ccc(CN2Cc3ncnc(OCC(C)(F)F)c3C2=O)cc1 [Example 22, 4-(2,2-difluoropropoxy)-6-(4-(1,3-dimethyl-1H-pyrazol-4-yl)benzyl)-6,7-dihydro-5H-pyrrolo[3,4-d]pyrimidin-5-one] |  |  |  | 100 | 28 | 71 % of Vehicle |  |
| Cc1nn(C)cc1-c1ccc(CN2Cc3ncnc(OCC(C)(F)F)c3C2=O)c(F)c1 [Example 23, 4-(2,2-difluoropropoxy)-6-(4-(1,3-dimethyl-1H-pyrazol-4-yl)-2-fluorobenzyl)-6,7-dihydro-5H-pyrrolo[3,4-d]pyrimidin-5-one] |  |  |  | 94 | 6 |  | 27 % of Vehicle |
| CCC(F)(F)COc1nccc2c1C(=O)N(Cc1ccc(-c3cnnc(C)c3)cc1)C2 [Example 19, 4-(2,2-difluorobutoxy)-2-(4-(6-methylpyridazin-4-yl)benzyl)-1,2-dihydro-3H-pyrrolo[3,4-c]pyridin-3-one] |  |  |  | 98 | 240 |  |  |
| CCn1cc(-c2ccc(CN3Cc4ncnc(OCC(F)F)c4C3=O)cc2)cn1 [Example 2, 4-(2,2-difluoroethoxy)-6-(4-(1-ethyl-1H-pyrazol-4-yl)benzyl)-6,7-dihydro-5H-pyrrolo[3,4-d]pyrimidin-5-one] |  |  |  | 108 | 31 |  |  |
